{
  "source": "patent US20110123445A1",
  "about": "“TREATMENT MONITORING” (priority 2008, published 2011)",
  "origin": "cited, not measured here",
  "key": {"[1]": {"conditions": "phase I trial, 57 cancer patients; Adjei et al 2008"}, "ERK phosphorylation": {"tested_on": "ERK phosphorylation", "conditions": "at the recommended phase II dose; Adjei et al 2008"}, "MEK": {"tested_on": "MEK", "conditions": "Swiss 3T3 cells; Alessi et al 1995"}, "tumour growth": {"tested_on": "tumour growth", "conditions": "Sebolt-Leopold et al 1999, 2004"}, "phosphorylated ERK": {"tested_on": "phosphorylated ERK", "conditions": "phase II studies; all tumour types, including melanoma, breast, colon, and lung"}},
  "data": [
    {"smiles": "Cn1cnc2c(F)c(Nc3ccc(Br)cc3Cl)c(C(=O)NOCCO)cc21", "note": "[AZD6244]", "values": [
      {"measurement": "tolerability", "setting": "[1]", "value": "well tolerated"},
      {"measurement": "inhibition of ERK phosphorylation", "setting": "ERK phosphorylation", "value": "demonstrable inhibition"}
    ]},
    {"smiles": "COc1cccc(-c2cc(=O)c3ccccc3o2)c1N", "note": "[PD098059]", "values": [
      {"measurement": "suppression of MEK activation by a variety of agonists", "setting": "MEK", "value": "80-90%"}
    ]},
    {"smiles": "O=C(NOCC1CC1)c1ccc(F)c(F)c1Nc1ccc(I)cc1Cl", "note": "[PD184352]", "values": [
      {"measurement": "inhibition of tumour growth in vivo", "setting": "tumour growth", "value": "inhibit tumour growth in vivo"}
    ]},
    {"smiles": "O=C(NOC[C@H](O)CO)c1ccc(F)c(F)c1Nc1ccc(I)cc1F", "note": "[PD0325901]", "values": [
      {"measurement": "phosphorylated ERK suppression in biopsied tumour tissue", "setting": "phosphorylated ERK", "value": "phosphorylated ERK suppression at all dose levels"}
    ]}
  ]
}
